According to patent US6638936B1, “Benzofurylpiperazine serotonin agonists” (Eli Lilly and Company, priority 1999, dated 2003):
pEC50, pKi: −log10 of the molar value. Like-named read-outs stand apart in the source and are kept apart here.

Experiments:
5-HT1f receptor = biological target: T1, 5-HT1f receptor (Homo sapiens, UniProt P30939); assay: Serotonergic receptor binding selectivity, 5-HT1f; settings: 5-HT RECEPTOR 1f
T1 sequence (P30939 1-366): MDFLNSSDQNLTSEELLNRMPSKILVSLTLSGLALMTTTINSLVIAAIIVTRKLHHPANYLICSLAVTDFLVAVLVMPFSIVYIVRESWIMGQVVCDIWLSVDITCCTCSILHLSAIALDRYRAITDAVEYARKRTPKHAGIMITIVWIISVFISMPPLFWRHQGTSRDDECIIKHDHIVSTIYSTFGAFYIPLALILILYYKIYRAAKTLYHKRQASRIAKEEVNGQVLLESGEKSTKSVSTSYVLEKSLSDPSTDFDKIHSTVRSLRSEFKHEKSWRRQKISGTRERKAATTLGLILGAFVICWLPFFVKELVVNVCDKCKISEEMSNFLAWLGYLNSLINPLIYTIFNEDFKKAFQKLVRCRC

5-HT1d receptor = 5-HT1d receptor (Homo sapiens, UniProt P28221); assay: Serotonergic receptor binding selectivity, 5-HT1d; settings: 5-HT RECEPTOR 1d
human 5-HT2C receptor [1] = biological target: T2, human 5-HT2C receptor (Homo sapiens, UniProt P28335); assay: [125I]-DOI binding for determination of 5-HT2c receptor affinity; settings: for pKi: 5-HT RECEPTOR 2c, [125I]-DOI, membranes of AV12 cells with human 5-HT2c, Ki from IC50 by Cheng-Prusoff; for affinity for the 5-HT2c receptor (in words): [125I]-DOI binding
T2 construct: expressed in transfected cells
T2 sequence (P28335 33-458): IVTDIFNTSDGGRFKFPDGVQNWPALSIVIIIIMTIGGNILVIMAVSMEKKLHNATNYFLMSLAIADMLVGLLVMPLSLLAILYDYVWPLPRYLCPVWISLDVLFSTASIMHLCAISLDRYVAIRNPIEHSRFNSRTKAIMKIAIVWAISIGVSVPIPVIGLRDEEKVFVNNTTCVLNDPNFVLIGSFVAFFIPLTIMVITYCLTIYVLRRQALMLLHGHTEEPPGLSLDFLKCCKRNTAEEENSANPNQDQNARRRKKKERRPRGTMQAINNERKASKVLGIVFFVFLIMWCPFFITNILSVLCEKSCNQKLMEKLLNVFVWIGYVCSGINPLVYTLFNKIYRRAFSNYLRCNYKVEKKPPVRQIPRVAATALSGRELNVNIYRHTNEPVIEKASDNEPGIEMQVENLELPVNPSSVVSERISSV
Description: The ability of the compounds of Formula I to bind to the 5-HT2c receptor subtype was measured essentially as described by Wainscott (Wainscott, et al., Journal of Pharmacology and Experimental Therapeutics, 276, 720-727 (1996)).
AV12 cells stably transfected with the human 5-HT2c receptors were grown in suspension and harvested by centrifugation, resuspended in 50 mM tris-HCl, pH 7.4, and frozen at −70° C. On the day of assay, an aliquot of cells was thawed, resuspended in 40 mL of 50 mM tris-HCl, pH 7.4, and centrifuged at 39,800×g for 10 minutes at 4° C. The resulting pellet was resuspended, incubated at 37° C. for 10 minutes to remove endogenous serotonin, then centrifuged twice more.
Briefly, prepared cell membranes were added to dilutions of compounds in a final solution containing 50 mM tris-HCl, pH 7.4, 9.75 mM MgCl2, 0.5 mM EDTA, 10 μM pargyline, 0.1% sodium ascorbate, and 0.1 nM [^125I]-DOI, with 10 μM mianserin for defining non-specific binding. All incubations (800 μL) were performed at 37° C. for 30 minutes before harvesting onto GF/C filters prewet with 0.5% polyethyleneimine, with four 1 mL washes of ice-cold 50 mM tris-HCl, pH 7.4, and counting in a gamma counter. Nonlinear regression analysis was performed on the concentration response curves using a four parameter logistic equation described by DeLean (DeLean, et al., Molecular Pharmacology, 21, 5-16 (1982)). IC50 values were converted to Ki values using the Cheng-Prusoff equation (Cheng, et al., Biochem. Pharmacol., 22, 3099-3108 (1973)).

5-HT1a receptor = biological target: T3, 5-HT1a receptor (Homo sapiens, UniProt P08908); assay: Serotonergic receptor binding selectivity, 5-HT1a
T3 sequence (P08908 1-422): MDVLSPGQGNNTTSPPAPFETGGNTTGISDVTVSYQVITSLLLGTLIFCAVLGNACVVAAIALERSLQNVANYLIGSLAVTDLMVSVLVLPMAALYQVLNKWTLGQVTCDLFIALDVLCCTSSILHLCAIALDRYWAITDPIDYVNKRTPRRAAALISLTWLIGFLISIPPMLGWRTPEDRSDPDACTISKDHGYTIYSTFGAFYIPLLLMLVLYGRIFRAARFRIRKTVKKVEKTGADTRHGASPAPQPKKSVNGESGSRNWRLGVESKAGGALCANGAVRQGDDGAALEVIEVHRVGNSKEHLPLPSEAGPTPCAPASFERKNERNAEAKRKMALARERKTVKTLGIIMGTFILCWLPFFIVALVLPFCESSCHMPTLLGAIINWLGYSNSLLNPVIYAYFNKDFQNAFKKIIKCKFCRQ

human 5-HT2C receptor [2] = biological target: T2, human 5-HT2C receptor; assay: [35S]-GTPγS binding (immunoadsorption scintillation proximity assay); assay type: biochemical; settings: for functional activity at the 5-HT2c receptor (in words): [35S]-GTPγS assay
Description: The 5-HT2C receptor is functionally coupled to specific G-proteins. Agonist activation of 5-HT2C G-protein-coupled receptors results in the release of GDP from the […] (G alpha q or G alpha i) of the G-protein and the subsequent binding of GTP. The binding of the stable analog [^35S]-GTPγS is an indicator of this receptor's activation.
The immunoadsorption scintillation proximity assay (ISPA) in microtiter plates of [^35S]-GTPγS binding to G alpha q or G alpha i was modified from published conditions (DeLapp et al, JPET 289 (1999) 946-955). Test compounds were dissolved in DMSO and diluted in assay buffer consisting of 50 mM Tris-HCl (pH 7.4), 10 mM MgCl2, 100 mM NaCl, and 0.2 mM EGTA. Incubations were performed over 12 test concentrations; volume was 200 μl. The incubation also contained […] and 0.25 nM [^35S]-GTPγS. Membrane homogenates from AV12 cells stably transfected with the human 5-HT2C receptor were added and the microtiter plates were incubated for 30 minutes at room temperature. The incubation was terminated by the addition of Nonidet P-40 (final concentration of 0.27%), followed by addition of rabbit polyclonal anti-G alpha q/11 antibody (0.2 μg per well), and anti-rabbit scintillation proximity assay beads (Amersham; 1.25 mg per well; final volume was 290 μl). The mixture was incubated for 3 hours at room temperature to complete the immunoadsorption of [^35S]-GTPγS bound to G alpha q/11. Microtiter plates were centrifuged briefly to pellet beads. [^35S]-GTPγS binding was quantitated by microtiter plate scintillation spectrometry (Wallac). Data analysis was performed by nonlinear regression analysis with GraphPad Prism software running on a personal computer, using 5-HT control concentration-response curves to define maximal stimulation of [^35S]-GTPγS binding.

5-HT6 receptor = 5-HT6 receptor (Homo sapiens, UniProt P50406); assay: Serotonergic receptor binding selectivity, 5-HT6
5-HT2a receptor = 5-HT2a receptor (Homo sapiens, UniProt P28223); assay: Serotonergic receptor binding selectivity, 5-HT2a
5-HT1e receptor = 5-HT1e receptor (Homo sapiens, UniProt P28566); assay: Serotonergic receptor binding selectivity, 5-HT1e; settings: 5-HT RECEPTOR 1e
5-HT2b receptor = 5-HT2b receptor (Homo sapiens, UniProt P41595); assay: Serotonergic receptor binding selectivity, 5-HT2b
5-HT4 receptor = 5-HT4 receptor (Homo sapiens, UniProt Q13639); assay: Serotonergic receptor binding selectivity, 5-HT4; settings: 5-HT RECEPTOR 4
5-HT1b receptor = 5-HT1b receptor (Homo sapiens, UniProt P28222); assay: Serotonergic receptor binding selectivity, 5-HT1b; settings: 5-HT RECEPTOR 1b
Chain of 5-HT1b receptor (P28222 whole entry): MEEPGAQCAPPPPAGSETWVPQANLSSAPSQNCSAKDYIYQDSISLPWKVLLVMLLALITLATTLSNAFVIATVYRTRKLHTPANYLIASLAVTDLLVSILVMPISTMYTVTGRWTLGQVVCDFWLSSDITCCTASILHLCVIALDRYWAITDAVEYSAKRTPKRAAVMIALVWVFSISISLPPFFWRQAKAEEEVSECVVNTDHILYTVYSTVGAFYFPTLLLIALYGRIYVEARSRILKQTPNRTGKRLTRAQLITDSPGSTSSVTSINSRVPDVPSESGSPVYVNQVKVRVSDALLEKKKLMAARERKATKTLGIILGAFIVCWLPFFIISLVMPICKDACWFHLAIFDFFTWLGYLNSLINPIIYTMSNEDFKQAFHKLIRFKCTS

Chain of 5-HT1e receptor (P28566 whole entry): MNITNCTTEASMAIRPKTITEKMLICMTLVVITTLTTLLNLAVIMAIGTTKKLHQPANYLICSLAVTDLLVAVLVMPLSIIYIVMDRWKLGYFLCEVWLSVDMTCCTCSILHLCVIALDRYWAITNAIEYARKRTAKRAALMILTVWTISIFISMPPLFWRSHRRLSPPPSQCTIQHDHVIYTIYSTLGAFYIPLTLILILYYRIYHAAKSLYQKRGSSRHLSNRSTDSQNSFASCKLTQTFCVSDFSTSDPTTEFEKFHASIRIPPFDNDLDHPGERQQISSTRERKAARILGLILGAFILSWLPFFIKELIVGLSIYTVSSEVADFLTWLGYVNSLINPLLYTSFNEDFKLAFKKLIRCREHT
Chain of 5-HT2b receptor (P41595 whole entry): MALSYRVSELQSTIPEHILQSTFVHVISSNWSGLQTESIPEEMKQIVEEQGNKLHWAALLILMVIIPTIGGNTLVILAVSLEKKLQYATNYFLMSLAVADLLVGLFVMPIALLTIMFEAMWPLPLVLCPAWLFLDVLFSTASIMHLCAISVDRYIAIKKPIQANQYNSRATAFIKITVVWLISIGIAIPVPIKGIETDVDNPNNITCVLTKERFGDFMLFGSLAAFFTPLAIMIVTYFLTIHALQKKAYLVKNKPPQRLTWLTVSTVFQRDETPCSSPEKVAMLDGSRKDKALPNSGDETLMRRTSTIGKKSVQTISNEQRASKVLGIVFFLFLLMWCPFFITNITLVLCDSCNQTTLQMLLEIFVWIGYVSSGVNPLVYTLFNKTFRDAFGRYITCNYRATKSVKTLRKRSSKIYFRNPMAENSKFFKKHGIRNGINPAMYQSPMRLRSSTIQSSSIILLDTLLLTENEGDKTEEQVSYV
Chain of 5-HT2a receptor (P28223 whole entry): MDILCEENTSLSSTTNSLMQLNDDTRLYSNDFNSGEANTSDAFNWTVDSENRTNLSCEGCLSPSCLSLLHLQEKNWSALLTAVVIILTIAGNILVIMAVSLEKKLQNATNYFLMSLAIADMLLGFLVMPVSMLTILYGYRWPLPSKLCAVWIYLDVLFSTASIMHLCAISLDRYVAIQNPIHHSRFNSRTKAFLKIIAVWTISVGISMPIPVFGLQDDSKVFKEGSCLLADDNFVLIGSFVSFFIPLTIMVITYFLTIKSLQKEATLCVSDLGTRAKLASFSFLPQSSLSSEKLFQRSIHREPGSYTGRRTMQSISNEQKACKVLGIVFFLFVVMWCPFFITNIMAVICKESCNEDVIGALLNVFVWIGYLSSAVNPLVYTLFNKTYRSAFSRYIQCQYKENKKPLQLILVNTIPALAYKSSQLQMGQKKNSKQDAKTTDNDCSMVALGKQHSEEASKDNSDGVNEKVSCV
Chain of 5-HT1d receptor (P28221 whole entry): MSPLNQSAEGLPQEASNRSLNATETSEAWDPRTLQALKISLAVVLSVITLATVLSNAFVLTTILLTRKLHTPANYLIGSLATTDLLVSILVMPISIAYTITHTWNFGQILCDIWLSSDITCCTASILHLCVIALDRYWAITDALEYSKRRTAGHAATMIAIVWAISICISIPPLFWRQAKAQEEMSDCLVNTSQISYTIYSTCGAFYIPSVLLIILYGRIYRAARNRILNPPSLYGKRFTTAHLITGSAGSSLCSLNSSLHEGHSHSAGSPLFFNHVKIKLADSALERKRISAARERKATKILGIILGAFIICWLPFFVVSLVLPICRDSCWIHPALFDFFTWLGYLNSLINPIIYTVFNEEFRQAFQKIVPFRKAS
Chain of 5-HT6 receptor (P50406 whole entry): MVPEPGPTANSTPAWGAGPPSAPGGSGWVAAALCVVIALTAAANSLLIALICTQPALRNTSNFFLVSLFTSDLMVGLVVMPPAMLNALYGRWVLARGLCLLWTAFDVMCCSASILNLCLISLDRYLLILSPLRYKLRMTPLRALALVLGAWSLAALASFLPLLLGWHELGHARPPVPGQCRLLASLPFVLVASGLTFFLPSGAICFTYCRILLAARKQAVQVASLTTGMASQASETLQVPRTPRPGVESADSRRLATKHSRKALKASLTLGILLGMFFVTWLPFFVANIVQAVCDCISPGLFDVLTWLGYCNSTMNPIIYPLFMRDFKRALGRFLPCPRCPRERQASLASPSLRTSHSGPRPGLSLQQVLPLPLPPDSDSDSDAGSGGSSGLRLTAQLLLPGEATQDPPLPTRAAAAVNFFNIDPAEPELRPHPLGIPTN
Chain of 5-HT4 receptor (Q13639 whole entry): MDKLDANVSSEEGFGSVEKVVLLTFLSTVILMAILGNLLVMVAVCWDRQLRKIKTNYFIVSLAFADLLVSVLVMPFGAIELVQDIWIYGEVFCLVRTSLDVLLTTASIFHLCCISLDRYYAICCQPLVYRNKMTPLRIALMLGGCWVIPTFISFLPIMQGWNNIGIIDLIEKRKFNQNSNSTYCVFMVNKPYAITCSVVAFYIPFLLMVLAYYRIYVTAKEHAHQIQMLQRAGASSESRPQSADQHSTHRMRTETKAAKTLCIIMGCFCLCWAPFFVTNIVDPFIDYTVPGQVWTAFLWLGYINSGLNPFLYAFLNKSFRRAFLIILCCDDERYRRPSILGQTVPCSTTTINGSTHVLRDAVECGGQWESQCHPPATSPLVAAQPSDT

SMILES	pKi (5-HT1f receptor)	pKi (5-HT1d receptor)	pKi (human 5-HT2C receptor [1])	affinity for the 5-HT2c receptor (in words) (human 5-HT2C receptor [1])	pKi (5-HT1a receptor)	pEC50 (human 5-HT2C receptor [2])	functional activity at the 5-HT2c receptor (in words) (human 5-HT2C receptor [2])	pKi (5-HT6 receptor)	pKi (5-HT2a receptor)	pKi (5-HT1e receptor)	pKi (5-HT2b receptor)	pKi (5-HT4 receptor)	pKi (5-HT1b receptor)	pKi (5-HT1a receptor; 5-HT RECEPTOR 1a, read-out: Ki, 5-HT receptor 1a)	pEC50 (human 5-HT2C receptor [2]; agonist of 5-HT2c receptor, membranes of AV12 cells with human 5-HT2C, 5-HT defines maximal stimulation, read-out: EC50, [35S]-GTPγS assay)	pKi (5-HT6 receptor; 5-HT RECEPTOR 6, read-out: Ki, 5-HT receptor 6)	pKi (5-HT2a receptor; 5-HT RECEPTOR 2a, read-out: Ki, 5-HT receptor 2a)	pKi (5-HT2b receptor; 5-HT RECEPTOR 2b, read-out: Ki, 5-HT receptor 2b)
C[C@H]1CN(c2ccc(C(F)(F)F)c3ccoc23)CCN1.O=C(O)/C=C/C(=O)O [Example 1, 1-(4-trifluoromethylbenzofur-7-yl)-3(S)-methylpiperazine fumarate]	6.79	6.83	8.62	found to have affinity	6.87	8.07	agonist	6.65	7.42	6.20	6.75	6.01	6.58					
CC[C@H]1CN(c2ccc(C(F)(F)F)c3ccoc23)CCN1.O=C(O)/C=C/C(=O)O [Example 2, 1-(4-trifluoromethylbenzofur-7-yl)-3(S)-ethylpiperazine fumarate]	6.00	6.14	9.11	found to have affinity			agonist			5.94			5.53	6.58	8.11	6.22	7.56	6.75
